The nature of data set [1]: Rate of epimerization of DHE mesylate as a function of pH. Format: physicochemical. The text has this:
Maintaining the pH above 5.0 in the compositions prepared according to the present invention results in a better stability profile when compared to DHE 45 maintained at a pH of 3.4-4.9.

Another data set concerns migraine. Conditions: cited from earlier work.

Structures can show the parent of a compound that is named as a salt. Where two headings read alike, the source gives them in different places.

In the case of `CN1C[C@H](C(=O)N[C@]2(C)O[C@@]3(O)[C@@H]4CCCN4C(=O)[C@H](Cc4ccccc4)N3C2=O)C[C@@H]2c3cccc4[nH]cc(c34)C[C@H]21` [DHE mesylate, Dihydroergotamine mesylate], the values for the rate of epimerization entry in data set [1] (pH of less than 4.0) and in data set [1] (pH of more than 5.0) were “higher” and “significantly lesser”, respectively.

Regarding `CN1C[C@H](C(=O)N[C@]2(C)O[C@@]3(O)[C@@H]4CCCN4C(=O)[C@H](Cc4ccccc4)N3C2=O)C[C@@H]2c3cccc4[nH]cc(c34)C[C@H]21` [DHE, Dihydroergotamine], the “onset of therapeutic efficacy” value was 45 min in the data set with migraine (intranasal) and 120 min in the data set with migraine (oral or sublingual delivery). The onset of action entry with migraine (parenteral administration) was “less than 30 minutes”.

These data come from patent US11786512B2, “Stable pharmaceutical compositions of dihydroergotamine mesylate” (Slayback Pharma LLC, priority 2019, dated 2023).
